Tests used:
[1] = test system: haloperidol-induced deficits in locomotor activity in mice; assay: Haloperidol-induced hypolocomotion model (HaloLMA); assay type: in vivo; settings: female TO mice, intraperitoneal, haloperidol 0.2 mg/kg
From the text: Evaluation of Potential Anti-Parkinsonian Activity In Vivo: Haloperidol-Induced Hypolocomotion Model
This approach is also considered a valid method for screening drugs with potential antiparkinsonian effects. Thus, the ability of novel adenosine antagonists to block haloperidol-induced deficits in locomotor activity in mice can be used to assess both in vivo and potential antiparkinsonian efficacy.
Female TO mice (25-30 g) are used for all experiments. Animals are housed in groups of 8 (cage size-40 cm (width) by 40 cm (length) by 20 cm (height)) under 12 hour light/dark cycle (lights on 08:00), in a temperature (20±2° C.) and humidity (55±15%) controlled environment. Animals have free access to food and water, and are allowed at least 7 days to acclimatize after delivery before experimental use.
Liquid injectable haloperidol (e.g., 1 mL Serenance ampoules from Baker Norton, Harlow, Essex, each containing haloperidol BP 5 mg) are diluted to a final concentration of 0.02 mg/mL using saline. Test compounds are typically prepared as aqueous suspensions in 8% Tween. All compounds are administered intraperitoneally in a volume of 10 mL/kg.
1.5 hours before testing, mice are administered 0.2 mg/kg haloperidol, a dose that reduces baseline locomotor activity by at least 50%. Test substances are typically administered 5-60 minutes prior to testing. The animals are then placed individually into clean, clear polycarbonate cages (20 cm (width) by 40 cm (length) by 20 cm (height), with a flat perforated, Perspex lid). Horizontal locomotor activity is determined by placing the cages within a frame containing a 3 by 6 array of photocells linked to a computer, which tabulates beam breaks. Mice are left undisturbed to explore for 1 hour, and the number of beams breaks made during this period serves as a record of locomotor activity which is compared with data for control animals for statistically significant differences.
A number of the exemplified compounds of the present invention were tested in this assay and the results obtained are shown in Table 3, below.

[2] = molecular target: T1, human adenosine A2A receptors (Homo sapiens, UniProt P29274); assay: Adenosine receptor binding: binding affinities at hA2A receptors ([3H]CGS-21680 displacement); settings: Table 1; [3H]CGS-21680 displacement, HEK-293 membranes; read-out: Binding Affinity hA2A-Ki
T1 construct: host or cells: HEK-293
T1 sequence (P29274 whole entry): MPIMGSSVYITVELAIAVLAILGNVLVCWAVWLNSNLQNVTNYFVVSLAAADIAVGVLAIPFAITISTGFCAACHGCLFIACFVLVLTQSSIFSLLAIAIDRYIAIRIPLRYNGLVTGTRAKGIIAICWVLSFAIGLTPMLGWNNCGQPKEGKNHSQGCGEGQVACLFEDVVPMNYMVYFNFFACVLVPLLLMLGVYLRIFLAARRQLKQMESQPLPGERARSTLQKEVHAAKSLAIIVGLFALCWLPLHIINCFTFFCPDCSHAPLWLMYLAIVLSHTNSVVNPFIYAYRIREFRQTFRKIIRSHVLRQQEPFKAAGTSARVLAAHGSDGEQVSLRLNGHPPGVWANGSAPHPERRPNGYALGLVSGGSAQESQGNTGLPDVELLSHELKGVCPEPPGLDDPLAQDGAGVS
Method: Adenosine Receptor Binding: Binding Affinities at hA2A Receptors
(§1) The resultant homogenate was kept for immediate use in the binding assay. Binding assays were performed in a total volume of 250 μL, containing [^3H]-CGS21680 (20.0 nM), membranes and additional drugs. Total binding was determined using drug dilution buffer (50 mM Tris-HCl pH 7.5, 10 mM MgCl2, 5% DMSO). Non-specific binding was determined using 300 μM CHA. […] Filters were left to dry overnight, and Microscint-0 scintillation fluid was then added to the filters. The filters were then left for at least 2 hours before the radioactivity was assessed using a Canberra Packard TopCount microplate scintillation counter.
To determine the free ligand concentration, three vials were counted with 25 μL of [^3H]CGS21680 containing 4 mL of Ultima-Gold MV scintillant on a Beckman LS6500 multi-purpose scintillation counter.
(§2) Data was analysed using a 4 parameter logistical equation and non-linear regression which yields affinity constants (pIC50), and slope parameters:
(§3) [formula] where E is the quantity of binding and [A] is the competitor concentration. The Ki is then determined using the Cheng-Prusoff equation: […]

hA2B receptors = molecular target: T2, hA2B receptors (Homo sapiens, UniProt P29275); assay: Adenosine receptor binding: binding affinities at hA2B receptors ([3H]-ZM241385 displacement); settings: Table 1; for Ki: [3H]-ZM241385 displacement, HEK-293 membranes, read-out: Binding Affinity hA2B-Ki; for Binding Selectivity A2b/A2a: ratio of Ki values
T2 construct: host or cells: HEK-293
T2 sequence (P29275 1-332): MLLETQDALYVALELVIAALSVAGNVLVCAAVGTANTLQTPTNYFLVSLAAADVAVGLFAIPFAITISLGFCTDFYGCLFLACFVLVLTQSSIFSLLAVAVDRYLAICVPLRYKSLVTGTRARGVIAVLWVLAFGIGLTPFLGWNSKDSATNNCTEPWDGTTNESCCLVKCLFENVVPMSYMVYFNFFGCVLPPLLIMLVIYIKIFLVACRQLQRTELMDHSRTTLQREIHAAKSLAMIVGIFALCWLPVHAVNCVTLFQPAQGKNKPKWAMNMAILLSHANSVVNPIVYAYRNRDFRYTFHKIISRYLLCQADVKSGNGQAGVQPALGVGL

[3] = molecular target: T3, human adenosine A3 receptors (Homo sapiens, UniProt P0DMS8); assay: Adenosine receptor binding: binding affinities at hA3 receptors ([125I]-AB MECA displacement); settings: Table 1; for Ki: [125I]-AB MECA displacement, CHO-K1 membranes, read-out: Binding Affinity hA3-Ki; for Binding Selectivity A3/A2a: ratio of Ki values
T3 construct: expressed in transfected cells; host or cells: CHO-K1
T3 sequence (P0DMS8 1-318): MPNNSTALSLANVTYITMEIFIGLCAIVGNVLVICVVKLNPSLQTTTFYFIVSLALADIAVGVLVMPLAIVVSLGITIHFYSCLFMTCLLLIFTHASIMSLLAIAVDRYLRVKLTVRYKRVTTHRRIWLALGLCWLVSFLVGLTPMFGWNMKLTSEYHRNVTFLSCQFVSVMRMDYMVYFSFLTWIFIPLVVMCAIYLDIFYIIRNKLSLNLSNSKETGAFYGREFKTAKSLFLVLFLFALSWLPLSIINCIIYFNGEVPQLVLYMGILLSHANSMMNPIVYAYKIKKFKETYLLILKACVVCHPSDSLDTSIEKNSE
Method: [formula] Adenosine Receptor Binding: Binding Affinities at hA3 Receptors
The resultant homogenate was kept for immediate use in the binding assay.
Total binding was determined using drug dilution buffer (50 mM Tris-HCl pH 7.5, 10 mM MgCl2, 5% DMSO). Non-specific binding was determined using 10 μM IB-MECA. […] Filters were left to dry overnight, and Microscint-0 scintillation fluid was then added to the filters. The filters were then left for at least 2 hours before the radioactivity was assessed using a Canberra Packard TopCount microplate scintillation counter.
as §2, §3

[4] = molecular target: T4, human adenosine A1 receptors (Homo sapiens, UniProt P30542); assay: Adenosine receptor binding: binding affinities at hA1 receptors ([3H]DPCPX displacement); settings: Table 1; for Ki: [3H]DPCPX displacement, CHO-K1 membranes, read-out: Binding Affinity hA1-Ki; for Binding Selectivity A1/A2a: ratio of Ki values
T4 construct: expressed in transfected cells; host or cells: CHO-K1
T4 sequence (P30542 1-326): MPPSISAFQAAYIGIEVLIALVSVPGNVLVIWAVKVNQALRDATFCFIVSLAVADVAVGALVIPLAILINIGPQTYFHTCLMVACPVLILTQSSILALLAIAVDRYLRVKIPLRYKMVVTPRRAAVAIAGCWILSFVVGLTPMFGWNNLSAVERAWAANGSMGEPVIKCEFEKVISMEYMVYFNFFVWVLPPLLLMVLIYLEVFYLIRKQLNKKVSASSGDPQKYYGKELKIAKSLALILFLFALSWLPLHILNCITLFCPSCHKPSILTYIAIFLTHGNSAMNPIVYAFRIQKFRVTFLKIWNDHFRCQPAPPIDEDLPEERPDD
Method: Adenosine Receptor Binding: Binding Affinities at hA1 Receptors
The resultant homogenate was kept for immediate use in the binding.
as §1, with “Binding” for “The resultant homogenate was kept for immediate use in the binding assay. Binding”, “[^3H]-DPCPX (3.0” for “[^3H]-CGS21680 (20.0”, “pH:7.5,” for “pH 7.5,”, “N6-cyclohexyladenosine (CHA).” for “CHA.”
To determine the free ligand concentration, three vials were counted with 25 μL of [^3H]DPCPX containing 4 mL of Ultima-Gold MV scintillant on a Beckman LS6500 multi-purpose scintillation counter.
as §2, §3

Row | melting point | Ki [2] | Ki (hA2B receptors) | Binding Selectivity A2b/A2a (hA2B receptors) | Ki [3] | Binding Selectivity A3/A2a [3] | Ki [4] | Binding Selectivity A1/A2a [4] | Structure (SMILES) | In Vivo activity HaloLMA MED [1]
1 | 194.8 to 195.1 °C | – | – | – | – | – | – | – | Cc1ccc(-c2nc(N)nc3c2nnn3Cc2cccc(COC(F)F)n2)o1 [Example 31, 7-(5-methylfuran-2-yl)-3-(6-[difluoromethyloxymethyl]-pyrid-2-ylmethyl)-3H-[1,2,3]triazolo[4,5-d]pyrimidin-5-amine] | 1 mg/kg
2 | – | 13.4 nM | 1240 nM | 93 | – | 634 | 731 nM | 54 | CC(C)(O)c1cccc(Cn2nnc3c(-c4cccc(C#N)c4)nc(N)nc32)n1 [Example 20, 7-(3-cyanophenyl)-3-(6-[1-hydroxy-1-methylethyl]pyrid-2-ylmethyl)-3H-[1,2,3]triazolo[4,5-d]pyrimidin-5-amine] | 3 mg/kg
3 | 154.2 to 154.5 °C | 7.2 nM | 1980 nM | 274 | 2180 nM | 303 | 299 nM | 42 | Cc1ccc(-c2nc(N)nc3c2nnn3Cc2cccc(COCC3CCCO3)n2)o1 (centres unmarked) [Example 33, 745-methylfuran-2-yl-3-(6-[tetrahydrofuran-2-ylmethyl]oxymethylpyrid-2-ylmethyl)-3H-[1,2,3]triazolo[4,5-d]pyrimidin-5-amine] | 3 mg/kg
4 | 168.7 to 168.9 °C | 4.1 nM | 1890 nM | 457 | 2120 nM | 513 | 164 nM | 40 | Cc1ccc(-c2nc(N)nc3c2nnn3Cc2cccc(COCC3CCOC3)n2)o1 (racemic) [Example 34, 7-(5-methylfuran-2-yl)-3-(6-[tetrahydrofuran-3-ylmethyl]oxymethylpyrid-2-ylmethyl)-3H-[1,2,3]triazolo[4,5-d]pyrimidin-5-amine] | 1 mg/kg
5 | – | 6 nM | 437 nM | 73 | 613 nM | 102 | 498 nM | 83 | COc1cccc(-c2nc(N)nc3c2nnn3Cc2cccc(C(C)(C)O)n2)c1 [Example 14, 7-(3-methoxyphenyl)-3-(6-[1-hydroxy-1-methylethyl]pyrid-2-ylmethyl)-3H-[1,2,3]triazolo[4,5-d]pyrimidin-5-amine] | 30 mg/kg

Continued, compound first:

Row | Structure (SMILES) | melting point | Ki [2] | Ki (hA2B receptors) | Binding Selectivity A2b/A2a (hA2B receptors) | Ki [3] | Binding Selectivity A3/A2a [3] | Ki [4] | Binding Selectivity A1/A2a [4] | In Vivo activity HaloLMA MED [1]
6 | Cc1ccc(-c2nc(N)nc3c2nnn3Cc2cccc(C3(O)CCC3)n2)o1 [Example 6] | – | 1.1 nM | 1370 nM | 1216 | 1500 nM | 1326 | 354 nM | 313 | 1 mg/kg
7 | Cc1ccc(-c2nc(N)nc3c2nnn3Cc2cccc(C(C)(C)O)n2)o1 [Example 2, 7-(5-methylfuran-2-yl)-3-(6-[1-hydroxy-1-methylethyl]pyrid-2-ylmethyl)-3H-[1,2,3]triazolo[4,5-d]pyrimidin-5-amine] | – | 1.9 nM | 2190 nM | 1165 | 706 nM | 375 | 360 nM | 192 | 1 mg/kg
8 | COCc1cccc(Cn2nnc3c(-c4ccccc4)nc(N)nc32)n1 [Example 12, 7-phenyl-3-(6-[methoxymethyl]pyrid-2-ylmethyl)-3H-[1,2,3]triazolo[4,5-d]pyrimidin-5-amine] | – | 2.8 nM | 1000 nM | 354 | 8170 nM | 2893 | 270 nM | 96 | 10 mg/kg
9 | CC(C)(O)c1cccc(Cn2nnc3c(-c4ccccc4)nc(N)nc32)n1 [Example 8, 7-phenyl-3-(6-[1-hydroxy-1-methylethyl]pyrid-2-ylmethyl)-3H-[1,2,3]triazolo[4,5-d]pyrimidin-5-amine] | – | 4.8 nM | 1300 nM | 269 | 3760 nM | 780 | 214 nM | 44 | 3 mg/kg
10 | Cc1ccc(-c2nc(N)nc3c2nnn3Cc2cccc(C3(O)CCOCC3)n2)o1 [Example 5, 7-(5-methylfuran-2-yl)-3-(6-[4-hydroxyetrahydropyran-4-yl]pyrid-2-ylmethyl)-3H-[1,2,3]triazolo[4,5-d]pyrimidin-5-amine] | – | 4.3 nM | 4200 nM | 980 | – | 1989 | 853 nM | 199 | 3 mg/kg

Reference: US11466019B2, “Triazolo[4,5-d] pyramidine derivatives and their use as purine receptor antagonists” (Vernalis (R&D) Limited, priority 2008, dated 2022)
